{"source": "patent EP4678643A1", "about": "“KRAS INHIBITOR COMPOUND, PHARMACEUTICAL COMPOSITION THEREOF, AND USE THEREOF” (Sunshine Lake Pharma Co., Ltd., priority 2023, dated 2024)", "key": {"[1]": {"system": "pERK in H358 cells (KRAS p.G12C)", "assay": "Inhibitory effect on intracellular pERK by In-Cell Western assay, H358", "type": "cell-based", "conditions": "Homo sapiens, NCI-H358, pERK inhibition, compound incubation 3 h", "experimental": "(§1) 1. Determination of Inhibitory Effect on Intracellular pERK by In-Cell Western Assay\n(§2) (1) On the first day, the following cells were revived and cultured with the corresponding culture medium and incubated at 37 °C, 5% CO2 until confluence.\n(§3) (2) On the third day, the culture medium was removed, the cells were rinsed once with DPBS, 2 mL of TrypLE™ trypsin was added for digestion, and the cells were placed at room temperature until the cells detached. (3) 5 mL fresh culture medium was added to resuspend cells to terminate the digestion, and the cells were gently pipetted and centrifuged at 1000 rpm for 5 minutes at room temperature. (4) The supernatant was removed, and 5 mL fresh culture medium was added to resuspend the cells and count cells. (5) The cells were plated in a 384-well plate with appropriate cell concentration by adjusting with complete culture medium and incubated at 37 °C, 5% CO2 for overnight. (6) 200 nL of the prepared serial dilution compound (DMSO final concentration was 0.5%) was added and incubated at 37 °C, CO2 for 3 h (HPAC cell lines for 1 h). (7) The cells were fixed. (8) The cells were washed twice with PBS. (9) The blocking solution was added and the cells were incubated at room temperature for 1 h. (10) The blocking solution was removed, and the primary antibody (phospho-ERK Rabbit mAb + GAPDH (D4C6R) Mouse mAb) was added and the cells were incubated at 4 °C for overnight. (11) The cells were washed twice with PBST (PBS + 0.05% Tween 20) for 2 minutes each time. (12) PBST was removed and secondary antibody (IRDye 800CW Goat anti-Rabbit IgG (H+L) + IRDye 680RD Goat anti Mouse IgG (H+L)) was added and incubated away from light at room temperature. (14) Secondary antibody was discarded and the cell was washed twice with PBST, 2 minutes each time. (15) 384-well plate was inverted and centrifuged at 1000 rpm at room temperature for 1 minute, and the 384-well plate was scanned with Odyssey CLx. (16) Data analysis: • a) Assay stability check was peformed by using DMSO and reference control data: [formula] [formula] • b) nonlinear fitting of Compound IC50: Y = Bottom + (Top−Bottom)/(1+10^(∧)((LogIC50−X)×HillSlope)). [formula]"}, "[2]": {"system": "pERK in MKN1 cells (KRAS WTdep)", "assay": "Inhibitory effect on intracellular pERK by In-Cell Western assay, MKN1", "type": "cell-based", "conditions": "Homo sapiens, MKN-1, pERK inhibition, compound incubation 3 h", "experimental": "as §1, §2, §3"}, "[3]": {"system": "pERK in HPAC cells (KRAS p.G12D)", "assay": "Inhibitory effect on intracellular pERK by In-Cell Western assay, HPAC", "type": "cell-based", "conditions": "Homo sapiens, pERK inhibition, compound incubation 1 h, read-out: HPAC, IC50 (nM) KRASp.G12D", "experimental": "as §1, §2\nas §3, with “[formula] • b) nonlinear fitting of Compound IC50: Y = Bottom + (Top−Bottom)/(1+10^(∧)((LogIC50−X)×HillSlope)). [formula]” left out"}, "[4]": {"system": "pERK in NCI-H727 cells (KRAS p.G12V)", "assay": "Inhibitory effect on intracellular pERK by In-Cell Western assay, NCI-H727", "type": "cell-based", "conditions": "Homo sapiens, pERK inhibition, compound incubation 3 h", "experimental": "as §1, §2\nas §3, with “[formula] • b) nonlinear fitting of Compound IC50: Y = Bottom + (Top−Bottom)/(1+10^(∧)((LogIC50−X)×HillSlope)). [formula]” left out"}, "[5]": {"system": "pERK in AGS cells (KRAS G12D)", "assay": "Inhibitory effect on intracellular pERK by In-Cell Western assay, AGS", "type": "cell-based", "conditions": "pERK inhibition, compound incubation 3 h, read-out: AGS, IC50 (nM) KRAS p.G12D", "experimental": "as §1, §2\nas §3, with “CLx.” for “CLx. (16) Data analysis: • a) Assay stability check was peformed by using DMSO and reference control data: [formula] [formula] • b) nonlinear fitting of Compound IC50: Y = Bottom + (Top−Bottom)/(1+10^(∧)((LogIC50−X)×HillSlope)). [formula]”"}, "KRAS G12D-GTP & cRAF": {"molecular_target": "KRAS G12D-GTP & cRAF (Homo sapiens, UniProt P01116, G12D)", "sequence (P01116 1-188 isoform P01116-2 G12D)": "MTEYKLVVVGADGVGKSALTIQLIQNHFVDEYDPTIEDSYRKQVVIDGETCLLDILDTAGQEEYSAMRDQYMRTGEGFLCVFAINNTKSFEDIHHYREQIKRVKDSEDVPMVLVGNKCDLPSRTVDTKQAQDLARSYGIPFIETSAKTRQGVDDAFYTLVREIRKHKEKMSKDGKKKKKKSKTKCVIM", "assay": "KRAS G12D/cRAF Binding Assay (HTRF)", "conditions": "competitive binding, 665/615 nm ratio", "source_text": "2. KRAS G12D/cRAF Binding Assay"}, "KRAS G12D-GTP & SOS1": {"molecular_target": "KRAS G12D-GTP & SOS1 (Homo sapiens, UniProt P01116, G12D)", "sequence (P01116 1-188 isoform P01116-2 G12D)": "as above", "assay": "KRAS G12D/SOS1 Binding Assay (HTRF)", "conditions": "competitive binding, 665/615 nm ratio", "source_text": "3. KRAS G12D/SOS1 Binding Assay"}, "[6]": {"system": "pERK in A549 cells (KRAS p.G12S)", "assay": "Inhibitory effect on intracellular pERK by In-Cell Western assay, A549", "type": "cell-based", "conditions": "Homo sapiens, pERK inhibition, compound incubation 3 h", "experimental": "as §1, §2, §3"}, "[7]": {"system": "pERK in HCT 116 cells (KRAS p.G13D)", "assay": "Inhibitory effect on intracellular pERK by In-Cell Western assay, HCT 116", "type": "cell-based", "conditions": "Homo sapiens, pERK inhibition, compound incubation 3 h", "experimental": "as §1, §2, §3"}, "[8]": {"conditions": "mouse, in vivo", "protocol": "Pharmacokinetic evaluation of the compounds of the present invention by intravenous injection or oral gavage in mice\nThe inventors conducted a pharmacokinetic evaluation of the compounds of this invention in mice.\nThe compounds of the present invention were administered to test animals in the form of a solution of 5% DMSO + 30% PEG400 + 65% saline, 10% DMSO + 10% Kolliphor HS15 + 80% Saline, 10% DMSO + 89% (25% SBE-B-CD) + (2% HCl), 20% PEG400 + 80% sterile water for injection, or 10% DMA + 10% HS15 + 30% PEG400 + 50% sterile water for injection. The animals were fasted for 12 hours before administration and had free access to water. For the intravenous administration group, the dose was 2 mg/kg/day, qd. Venous blood samples (approximately 0.15 mL) were collected at the following time points after administration: 0.083, 0.25, 0.5, 1.0, 2.0, 5.0, 7.0 and 24 hours. EDTA-K2 was pre-added to the blood collection tube as an anticoagulant. Blood samples were centrifuged at 12,000 rpm for 2 minutes, and plasma was collected and stored at -20°C or -70°C. For the intravenous administration group, the dose was 5 mg/kg/day, qd. Venous blood samples (approximately 0.15 mL) were collected at the following time points after administration: 0.25, 0.5, 1.0, 2.0, 5.0, 7.0 and 24 hours. EDTA-K2 was pre-added to the blood collection tube as an anticoagulant. Blood samples were centrifuged at 12,000 rpm for 2 minutes, and plasma was collected and stored at -20°C or -70°C.\nThe collected plasma samples were processed (frozen plasma was thawed at room temperature and vortexed for 15 seconds. 10-20 µL of plasma was added to 120-150 µL of acetonitrile solution containing the internal standard and vortexed for 5 minutes. The sample was centrifuged at 4,000 rpm for 5 minutes. 100 µL of the supernatant was added to 120-150 µL of methanol/water (v/v = 1/1) and mixed). The concentrations of the compounds in the plasma were analyzed by LC-MS/MS."}}, "note": "Read-outs that look alike come from different tables or passages of the source.", "data": [{"smiles": "C#Cc1c(F)ccc2cc(O)cc(-c3nc(C#CCC)c4c(N5CCCOCC5)nc(OCC56CCCN5CC(F)C6)nc4c3F)c12", "note": "(centres unmarked) [Compound 3]", "values": [{"measurement": "IC50", "setting": "[1]", "result": 0.7, "unit": "nM"}, {"measurement": "IC50", "setting": "[2]", "result": 3.7, "unit": "nM"}, {"measurement": "IC50", "setting": "[3]", "result": 0.6, "unit": "nM"}, {"measurement": "IC50", "setting": "[4]", "result": 2.2, "unit": "nM"}, {"measurement": "IC50", "setting": "[5]; Homo sapiens, AGS, 3 h", "result": 0.5, "unit": "nM"}, {"measurement": "IC50", "setting": "KRAS G12D-GTP & cRAF", "result": 7.4, "unit": "nM"}, {"measurement": "IC50", "setting": "KRAS G12D-GTP & SOS1", "result": 14.8, "unit": "nM"}]}, {"smiles": "C#Cc1c(F)ccc2cc(O)cc(-c3nc(C#CC)c4c(N5CCCOCC5)nc(OCC56CCCN5CC(F)C6)nc4c3F)c12", "note": "(centres unmarked) [Compound 1]", "values": [{"measurement": "IC50", "setting": "[1]", "result": 0.4, "unit": "nM"}, {"measurement": "IC50", "setting": "[2]", "result": 1.9, "unit": "nM"}, {"measurement": "IC50", "setting": "[3]", "result": 0.3, "unit": "nM"}, {"measurement": "IC50", "setting": "[4]", "result": 1, "unit": "nM"}, {"measurement": "IC50", "setting": "[6]", "result": 0.6, "unit": "nM"}, {"measurement": "IC50", "setting": "[7]", "result": 2.1, "unit": "nM"}, {"measurement": "IC50", "setting": "[5]", "result": 0.2, "unit": "nM"}, {"measurement": "IC50", "setting": "KRAS G12D-GTP & cRAF", "result": 7.9, "unit": "nM"}, {"measurement": "IC50", "setting": "KRAS G12D-GTP & SOS1", "result": 16.3, "unit": "nM"}, {"measurement": "pharmacokinetic properties in mice", "setting": "[8]", "result": "good pharmacokinetic properties"}]}]}
